# Source: patent EP3782997A1, “FUSED PYRIMIDINE COMPOUNDS AND PHARMACEUTICAL COMPOSITIONS THEREOF FOR THE TREATMENT OF FIBROTIC DISEASES” (Galapagos N.V., priority 2019, dated 2021)
# Molecular target: hENPP2 (Homo sapiens, UniProt Q13822)
# Experiment: Human ENPP2 (hENPP2) biochemical assay using LPC as substrate
# Conditions: 150 µM LPC (palmitoyl 16:0), 37°C for 30 min
# In short: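 IC50 came from compound series (top 50 µM, 1/3 steps) incubated 30 min at 37°C with 1 or 3 µg/mL final enzyme and palmitoyl LPC added at 150 µM, pH 8.5 Tris buffer with Ca2+. Choline output measured as quinoneimine dye at 555 nm via coupled oxidase/HRP/TOOS detection.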
row,IC50 [nM],SMILES
1,0.01 to 100,"C[C@@H]1C[C@H](N2Cc3cnc(Nc4cc(C(N)=O)cc(C(F)(F)F)c4)nc3C2)CCN1C(=O)c1ccc2[nH]nnc2c1 [compound 129, 3-[[6-[(2R,4R)-1-(1H-benzotriazole-5-carbonyl)-2-methyl-4-piperidyl]-5,7-dihydropyrrolo[3,4-d]pyrimidin-2-yl]amino]-5-(trifluoromethyl)benzamide]"
2,0.01 to 100,"Cc1ccc(Nc2ncc3c(n2)CN([C@@H]2CCN(C(=O)c4ccc5[nH]nnc5c4)[C@H](C)C2)C3)cc1 [compound 134, 1H-benzotriazol-5-yl-[(2R,4R)-2-methyl-4-[2-(4-methylanilino)-5,7-dihydropyrrolo[3,4-d]pyrimidin-6-yl]-1-piperidyl]methanone]"
3,0.01 to 100,"C[C@@H]1C[C@H](N2Cc3cnc(Nc4ccc(Cl)cc4)nc3C2)CCN1C(=O)c1ccc2[nH]nnc2c1 [compound 135, 1H-benzotriazol-5-yl-[(2R,4R)-4-[2-(4-chloroanilino)-5,7-dihydropyrrolo[3,4-d]pyrimidin-6-yl]-2-methyl-1-piperidyl]methanone]"
4,100 to 500,"Cc1cc(C)cc(Nc2ncc3c(n2)CN(C2CCN(C(=O)c4cc5nn[nH]c5cn4)CC2)C3)c1 [compound 140, [4-[2-(3,5-dimethylanilino)-5,7-dihydropyrrolo[3,4-d]pyrimidin-6-yl]-1-piperidyl]-(3H-triazolo[4,5-c]pyridin-6-yl)methanone]"
5,0.01 to 100,"CCOc1cc2[nH]nnc2cc1C(=O)N1CCC(N2Cc3cnc(Nc4cc(C)cc(C)c4)nc3C2)CC1 [compound 141, [4-[2-(3,5-dimethylanilino)-5,7-dihydropyrrolo[3,4-d]pyrimidin-6-yl]-1-piperidyl]-(6-ethoxy-1H-benzotriazol-5-yl)methanone]"
6,500 to 1000,"C[C@@H]1C[C@@H](N2Cc3cnc(Nc4ccc(F)cc4)nc3C2)CCN1C(=O)c1ccc2[nH]nnc2c1 [compound 143, 1H-benzotriazol-5-yl-[(2R,4S)-4-[2-(4-fluoroanilino)-5,7-dihydropyrrolo[3,4-d]pyrimidin-6-yl]-2-methyl-1-piperidyl]methanone]"
7,0.01 to 100,"C[C@@H]1C[C@H](N2Cc3cnc(Nc4ccc(F)cc4)nc3C2)CCN1C(=O)c1ccc2[nH]nnc2c1 [compound 144, 1H-benzotriazol-5-yl-[(2R,4R)-4-[2-(4-fluoroanilino)-5,7-dihydropyrrolo[3,4-d]pyrimidin-6-yl]-2-methyl-1-piperidyl] methanone]"
8,> 1000,"COC(=O)c1cccc(C(=O)N2CC[C@@H](N3Cc4cnc(Nc5cc(C)cc(C)c5)nc4C3)C[C@H]2C)c1 [compound 145, methyl 3-[(2R,4R)-4-[2-(3,5-dimethylanilino)-5,7-dihydropyrrolo[3,4-d]pyrimidin-6-yl]-2-methyl-piperidine-1-carbonyl]benzoate]"
9,0.01 to 100,"Cc1cc(C)cc(Nc2ncc3c(n2)CN([C@@H]2CCN(C(=O)c4c[nH]nn4)[C@H](C)C2)C3)c1 [compound 147, [(2R,4R)-4-[2-(3,5-dimethylanilino)-5,7-dihydropyrrolo[3,4-d]pyrimidin-6-yl]-2-methyl-1-piperidyl]-(1H-triazol-4-yl)methanone]"
10,0.01 to 100,"COc1ccc(Nc2ncc3c(n2)CN([C@@H]2CCN(C(=O)c4ccc5[nH]nnc5c4)[C@H](C)C2)C3)cc1 [compound 149, 1H-benzotriazol-5-yl-[(2R,4R)-4-[2-(4-methoxyanilino)-5,7-dihydropyrrolo[3,4-d]pyrimidin-6-yl]-2-methyl-1-piperidyl] methanone]"
11,0.01 to 100,"C[C@@H]1C[C@H](N2Cc3cnc(Nc4ccc(S(F)(F)(F)(F)F)cc4)nc3C2)CCN1C(=O)c1ccc2[nH]nnc2c1 [compound 150, 1H-benzotriazol-5-yl-[(2R,4R)-2-methyl-4-[2-[4-(pentafluoro-λ^6-sulfanyl)anilino]-5,7-dihydropyrrolo[3,4-d]pyrimidin-6-yl]-1-piperidyl]methanone]"
12,0.01 to 100,"COc1cc(Nc2ncc3c(n2)CN([C@@H]2CCN(C(=O)c4ccc5[nH]nnc5c4)[C@H](C)C2)C3)cc(OC)c1 [compound 151, 1H-benzotriazol-5-yl-[(2R,4R)-4-[2-(3,5-dimethoxyanilino)-5,7-dihydropyrrolo[3,4-d]pyrimidin-6-yl]-2-methyl-1-piperidyl]methanone]"
13,0.01 to 100,"C[C@@H]1C[C@H](N2Cc3cnc(Nc4ccc(C(F)(F)F)cc4)nc3C2)CCN1C(=O)c1ccc2[nH]nnc2c1 [compound 152, 1H-benzotriazol-5-yl-[(2R,4R)-2-methyl-4-[2-[4-(trifluoromethyl)anilino]-5,7-dihydropyrrolo[3,4-d]pyrimidin-6-yl]-1-piperidyl]methanone]"
14,0.01 to 100,"Cc1cc(C)cc(Nc2ncc3c(n2)CN([C@@H]2CCN(C(=O)c4ccnc(NS(C)(=O)=O)c4)[C@H](C)C2)C3)c1 [compound 154, N-[4-[(2R,4R)-4-[2-(3,5-dimethylanilino)-5,7-dihydropyrrolo[3,4-d]pyrimidin-6-yl]-2-methyl-piperidine-1-carbonyl]-2-pyridyl]methanesulfonamide]"
15,0.01 to 100,"Cc1cc(C)cc(Nc2ncc3c(n2)CN([C@@H]2CCN(C(=O)c4ccc(NS(C)(=O)=O)nc4)[C@H](C)C2)C3)c1 [compound 155, N-[5-[(2R,4R)-4-[2-(3,5-dimethylanilino)-5,7-dihydropyrrolo[3,4-d]pyrimidin-6-yl]-2-methyl-piperidine-1-carbonyl]-2-pyridyl]methanesulfon amide]"
16,0.01 to 100,"Cc1cc(C)cc(Nc2ncc3c(n2)CN([C@@H]2CCN(C(=O)c4ccc5c(c4)CC(=O)N5)[C@H](C)C2)C3)c1 [compound 156, 5-[(2R,4R)-4-[2-(3,5-dimethylanilino)-5,7-dihydropyrrolo[3,4-d]pyrimidin-6-yl]-2-methyl-piperidine-1-carbonyl]indolin-2-one]"
17,0.01 to 100,"Cc1cc(C)cc(Nc2ncc3c(n2)CN([C@@H]2CCN(C(=O)c4ccc5[nH]c(=O)[nH]c5c4)[C@H](C)C2)C3)c1 [compound 157, 5-[(2R,4R)-4-[2-(3,5-dimethylanilino)-5,7-dihydropyrrolo[3,4-d]pyrimidin-6-yl]-2-methyl-piperidine-1-carbonyl]-1,3-dihydrobenzimidazol-2-one]"
18,500 to 1000,"Cc1cc(C)cc(Nc2ncc3c(n2)CN([C@@H]2CCN(C(=O)c4ccc(S(N)(=O)=O)nc4)[C@H](C)C2)C3)c1 [compound 159, 5-[(2R,4R)-4-[2-(3,5-dimethylanilino)-5,7-dihydropyrrolo[3,4-d]pyrimidin-6-yl]-2-methyl-piperidine-1-carbonyl]pyridine-2-sulfonamide]"
19,> 1000,"Cc1cc(C)cc(Nc2ncc3c(n2)CN([C@@H]2CCN(C(=O)c4cn(C)nn4)[C@H](C)C2)C3)c1 [compound 161, [(2R,4R)-4-[2-(3,5-dimethylanilino)-5,7-dihydropyrrolo[3,4-d]pyrimidin-6-yl]-2-methyl-1-piperidyl]-(1-methyltriazol-4-yl)methanone]"
20,> 1000,"Cc1cc(C)cc(Nc2ncc3c(n2)CCN(C2CCN(C(=O)c4c[nH]nn4)CC2)C3)c1 [compound 162, [4-[2-(3,5-dimethylanilino)-7,8-dihydro-5H-pyrido[4,3-d]pyrimidin-6-yl]-1-piperidyl]-(1H-triazol-4-yl)methanone]"
21,0.01 to 100,"Cc1cc(C)cc(Nc2ncc3c(n2)CN([C@@H]2CCN(C(=O)c4cc5nn[nH]c5cc4C)[C@H](C)C2)C3)c1 [compound 163, [(2R,4R)-4-[2-(3,5-dimethylanilino)-5,7-dihydropyrrolo[3,4-d]pyrimidin-6-yl]-2-methyl-1-piperidyl]-(6-methyl-1H-benzotriazol-5-yl)methanone]"
22,> 1000,"C[C@@H]1C[C@@H](N2Cc3cnc(Nc4ccccc4)nc3C2)CCN1C(=O)c1ccc2[nH]nnc2c1 [compound 165, [(2R,4S)-4-(2-anilino-5,7-dihydropyrrolo[3,4-d]pyrimidin-6-yl)-2-methyl-1-piperidyl]-(1H-benzotriazol-5-yl)methanone]"
23,100 to 500,"C[C@@H]1C[C@H](N2Cc3cnc(Nc4ccccc4)nc3C2)CCN1C(=O)c1ccc2[nH]nnc2c1 [compound 166, [(2R,4R)-4-(2-anilino-5,7-dihydropyrrolo[3,4-d]pyrimidin-6-yl)-2-methyl-1-piperidyl]-(1H-benzotriazol-5-yl)methanone]"
24,0.01 to 100,"Cc1cc(C)cc(Nc2ncc3c(n2)CN([C@@H]2CCN(C(=O)c4ccc5[nH]nnc5c4C)[C@H](C)C2)C3)c1 [compound 168, [(2R,4R)-4-[2-(3,5-dimethylanilino)-5,7-dihydropyrrolo[3,4-d]pyrimidin-6-yl]-2-methyl-1-piperidyl]-(4-methyl-1H-benzotriazol-5-yl)methanone]"
25,100 to 500,"COc1cccc(Nc2ncc3c(n2)CN([C@H]2CCN(C(=O)c4ccc5[nH]nnc5c4)[C@H](C)C2)C3)c1 [compound 170, 1H-benzotriazol-5-yl-[(2R,4S)-4-[2-(3-methoxyanilino)-5,7-dihydropyrrolo[3,4-d]pyrimidin-6-yl]-2-methyl-1-piperidyl]methanone]"
26,0.01 to 100,"COc1cccc(Nc2ncc3c(n2)CN([C@@H]2CCN(C(=O)c4ccc5[nH]nnc5c4)[C@H](C)C2)C3)c1 [compound 171, 1H-benzotriazol-5-yl-[(2R,4R)-4-[2-(3-methoxyanilino)-5,7-dihydropyrrolo[3,4-d]pyrimidin-6-yl]-2-methyl-1-piperidyl]methanone]"
27,> 1000,"C[C@@H]1C[C@H](N2Cc3cnc(Nc4ccc(F)cc4)nc3C2)CCN1C(=O)c1c[nH]nn1 [compound 173, [(2R,4R)-4-[2-(4-fluoroanilino)-5,7-dihydropyrrolo[3,4-d]pyrimidin-6-yl]-2-methyl-1-piperidyl]-(1H-triazol-4-yl)methanone]"
28,> 1000,"Cc1cc(C)cc(Nc2ncc3c(n2)CCN(C2CCN(C(=O)c4ccnc(NS(C)(=O)=O)c4)CC2)C3)c1 [compound 174, N-[4-[4-[2-(3,5-dimethylanilino)-7,8-dihydro-5H-pyrido[4,3-d]pyrimidin-6-yl]piperidine-1-carbonyl]-2-pyridyl]methanesulfonamide]"
